This is an account of results in US10253081B2, “Glucagon analogues” (Zealand Pharma A/S, priority 2012, dated 2019).

*1 amine or outer side, *2 acyl side, *3 side chain or, on linkers, in order; H or OH if unused. Where a SMILES comes first, the peptide text is derived from it. Side-chain parts run from the residue outwards. [ ]: non-standard residue; d: D form. The star is where a group is joined. γGlu = O=C(O)[C@H](CCC(=O)[*:2])N[*:1]; Palmitoyl = CCCCCCCCCCCCCCCC(=O)*; Aib = CC(C)(N)C(=O)O

A short description of test [1]: Oral glucose tolerance test (OGTT). It counts as in vivo, C57BL/6J mice. The note with it: blood glucose AUC 0-120 min, 10 nmol/kg s.c. 4 h before oral glucose 2 g/kg. The procedure:
Male C57BL/6J mice were fasted for 10 h before they received an oral glucose bolus of 2 g/kg body weight. Peptides were dissolved in saline buffered with 25 mM phosphate and administered at a dose of 10 nmol/kg body weight by subcutaneous injection 4 h before the glucose bolus. Control animals received a vehicle injection only. Group size was 7 animals per group. A pre-dose and a pre-glucose (0 min) blood sample were obtained by tail bleeding and blood glucose was measured with a glucometer. Additional samples of tail blood for measuring blood glucose were obtained 15 min, 30 min, 60 min, 90 min and 120 min after the glucose challenge. […] Calculation of AUC was done by the trapezoidal rule without baseline correction. The data are presented as mean±S.E.M. Statistical comparisons were conducted by one-way ANOVA followed by Tukey's post test. Vehicle alone was used as a control.

In test [2] the target is T1, human glucagon-like peptide 1 receptor (GLP-1R) (Homo sapiens, UniProt P43220).
T1 construct: expressed in transfected cells
T1 sequence (P43220 24-463): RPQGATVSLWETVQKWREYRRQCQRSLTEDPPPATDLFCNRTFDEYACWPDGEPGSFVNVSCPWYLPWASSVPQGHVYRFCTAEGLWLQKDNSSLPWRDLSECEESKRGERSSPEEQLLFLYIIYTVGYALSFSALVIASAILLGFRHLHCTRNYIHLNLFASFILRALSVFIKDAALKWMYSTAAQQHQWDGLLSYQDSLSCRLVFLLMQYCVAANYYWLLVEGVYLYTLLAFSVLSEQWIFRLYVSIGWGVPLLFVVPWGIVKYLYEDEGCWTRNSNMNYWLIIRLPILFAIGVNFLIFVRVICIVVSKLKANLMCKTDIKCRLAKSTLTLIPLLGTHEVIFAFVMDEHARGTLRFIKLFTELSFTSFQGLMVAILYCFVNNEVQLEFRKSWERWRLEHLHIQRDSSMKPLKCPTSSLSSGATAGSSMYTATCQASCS
Put plainly: GLP-1 receptor efficacy assay (cAMP AlphaScreen, CHO cells). It counts as cell-based. The settings on record: Table 1A; for EC50: CHO cells expressing human GLP-1-R, cAMP, read-out: EC50 hGLP-1R CHO-K1; for Ratio GLP-1/Glucagon: EC50 [GLP-1R]/EC50 [Glucagon-R]. The essentials:
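Stably transfected CHO clones expressing human GLP-1R or glucagon receptor were treated with increasing peptide concentrations for 15 min at room temperature in KRBH containing 0.1 mM IBMX. After lysis, cAMP was quantified by AlphaScreen; EC50 and efficacy relative to GLP-1 or glucagon reference came from curve fitting.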
(In Alpha technology, singlet oxygen from a donor bead excites a nearby acceptor bead.)

In test [3] the target is T2, endogenous GLP-1 receptors (Mus musculus, UniProt O35659).
T2 construct: Agonistic activity of the test compounds on endogenous GLP-1 receptors; endogenous in cells
T2 sequence (O35659 22-463): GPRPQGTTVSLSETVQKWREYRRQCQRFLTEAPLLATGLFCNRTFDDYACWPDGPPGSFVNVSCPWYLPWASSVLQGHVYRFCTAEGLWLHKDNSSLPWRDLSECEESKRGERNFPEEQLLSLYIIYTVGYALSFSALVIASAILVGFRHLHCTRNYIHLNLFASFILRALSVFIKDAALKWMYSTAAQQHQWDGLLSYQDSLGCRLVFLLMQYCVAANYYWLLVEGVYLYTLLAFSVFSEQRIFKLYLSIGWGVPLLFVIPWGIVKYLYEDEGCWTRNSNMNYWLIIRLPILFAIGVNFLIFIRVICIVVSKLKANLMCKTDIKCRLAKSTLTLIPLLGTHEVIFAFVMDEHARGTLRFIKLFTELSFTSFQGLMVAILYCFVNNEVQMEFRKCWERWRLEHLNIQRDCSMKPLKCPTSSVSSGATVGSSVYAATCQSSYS
Put plainly: Agonistic activity on endogenous GLP-1 receptor (cAMP, murine insulinoma cell line). Format: cell-based. The note with it: intracellular cAMP, 15 minutes at 26° C.; read-out: EC50 GLP-1R (murine insulinoma cells). In outline:
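Murine insulinoma cells were exposed 15 min at 26° C in KRBH with 0.1% DMSO to compound or GLP-1 ([…]), then cAMP was measured by AlphaScreen against a standard curve, in quadruplicate. pEC50 came from curve fits; % CTL was normalised to the maximal GLP-1 cAMP response.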

Broadly, the EC50 is the concentration giving half of the maximal effect.

Regarding `CCCCCCCCCCCCCCCC(=O)N[C@@H](CCC(=O)NCCCC[C@H](NC(=O)[C@H](CO)NC(=O)[C@H](CC(=O)O)NC(=O)[C@H](CC(C)C)NC(=O)[C@H](Cc1ccc(O)cc1)NC(=O)[C@H](CCCCN)NC(=O)[C@H](CO)NC(=O)[C@H](Cc1ccc(O)cc1)NC(=O)[C@H](CC(=O)O)NC(=O)[C@H](CO)NC(=O)[C@@H](NC(=O)[C@H](Cc1ccccc1)NC(=O)[C@@H](NC(=O)CNC(=O)[C@H](CCC(N)=O)NC(=O)C(C)(C)NC(=O)[C@@H](N)Cc1c[nH]cn1)[C@@H](C)O)[C@@H](C)O)C(=O)N[C@@H](C)C(=O)N[C@@H](C)C(=O)N[C@@H](Cc1c[nH]cn1)C(=O)N[C@@H](CC(=O)O)C(=O)N[C@@H](Cc1ccccc1)C(=O)N[C@H](C(=O)N[C@@H](CCC(=O)O)C(=O)N[C@@H](Cc1c[nH]c2ccccc12)C(=O)N[C@@H](CC(C)C)C(=O)N[C@@H](CC(C)C)C(=O)N[C@@H](CO)C(=O)O)C(C)C)C(=O)O` [Compound 1, H-H-Aib-QGTFTSDYSKYLDS-K(Hexadecanoyl-isoGlu)-AAHDFVEWLLS-OH] (H-H[Aib]QGTFTSDYSKYLDSK([γGlu-Palmitoyl])AAHDFVEWLLS-OH), the “AUC (% Ctrl)” value in test [1] stood at 66 % Ctrl. The EC50 is 0.54 nM in test [2] and 1.47 nM in test [3]. In test [2], the “Ratio GLP-1/Glucagon” value is 0.60.
As to `CCCCCCCCCCCCCCCC(=O)N[C@@H](CCC(=O)NCCCC[C@H](NC(=O)[C@H](CO)NC(=O)[C@H](CC(=O)O)NC(=O)[C@H](CC(C)C)NC(=O)[C@H](Cc1ccc(O)cc1)NC(=O)[C@H](CCCCN)NC(=O)[C@H](CO)NC(=O)[C@H](Cc1ccc(O)cc1)NC(=O)[C@H](CC(=O)O)NC(=O)[C@H](CO)NC(=O)[C@@H](NC(=O)[C@H](Cc1ccccc1)NC(=O)[C@@H](NC(=O)CNC(=O)[C@H](CCC(N)=O)NC(=O)[C@H](CO)NC(=O)[C@@H](N)Cc1c[nH]cn1)[C@@H](C)O)[C@@H](C)O)C(=O)N[C@@H](C)C(=O)N[C@@H](C)C(=O)N[C@@H](Cc1c[nH]cn1)C(=O)N[C@@H](CC(=O)O)C(=O)N[C@@H](Cc1ccccc1)C(=O)N[C@H](C(=O)N[C@@H](CCC(=O)O)C(=O)N[C@@H](Cc1c[nH]c2ccccc12)C(=O)N[C@@H](CC(C)C)C(=O)N[C@@H](CC(C)C)C(=O)N[C@@H](CO)C(=O)N[C@@H](C)C(=O)O)C(C)C)C(=O)O` [Compound 2, H-HSQGTFTSDYSKYLDS-K(Hexadecanoyl-isoGlu)-AAHDFVEWLLSA-OH] (H-HSQGTFTSDYSKYLDSK([γGlu-Palmitoyl])AAHDFVEWLLSA-OH), the “AUC (% Ctrl)” value in test [1] stood at 66 % Ctrl. In addition, in test [2], the EC50 was found to be 0.77 nM and the “Ratio GLP-1/Glucagon” value is 2.48. Also, the EC50 in test [3] was found to be 1.41 nM.
Consider `CCCCCCCCCCCCCCCC(=O)N[C@@H](CCC(=O)NCCCC[C@H](NC(=O)[C@H](CO)NC(=O)[C@H](CC(=O)O)NC(=O)[C@H](CC(C)C)NC(=O)[C@H](Cc1ccc(O)cc1)NC(=O)[C@H](CCCCN)NC(=O)[C@H](CO)NC(=O)[C@H](Cc1ccc(O)cc1)NC(=O)[C@H](CC(=O)O)NC(=O)[C@H](CO)NC(=O)[C@@H](NC(=O)[C@H](Cc1ccccc1)NC(=O)[C@@H](NC(=O)CNC(=O)[C@H](CCC(N)=O)NC(=O)[C@H](CO)NC(=O)[C@@H](N)Cc1c[nH]cn1)[C@@H](C)O)[C@@H](C)O)C(=O)N[C@@H](C)C(=O)N[C@@H](C)C(=O)N[C@@H](Cc1c[nH]cn1)C(=O)N[C@@H](CC(=O)O)C(=O)N[C@@H](Cc1ccccc1)C(=O)N[C@H](C(=O)N[C@@H](CCC(=O)O)C(=O)N[C@@H](Cc1c[nH]c2ccccc12)C(=O)N[C@@H](CC(C)C)C(=O)N[C@@H](CC(C)C)C(=O)N[C@@H](CCCNC(=N)N)C(=O)N[C@@H](C)C(=O)O)C(C)C)C(=O)O` [Compound 3, H-HSQGTFTSDYSKYLDS-K(Hexadecanoyl-isoGlu)-AAHDFVEWLLRA-OH] (H-HSQGTFTSDYSKYLDSK([γGlu-Palmitoyl])AAHDFVEWLLRA-OH), for which the “AUC (% Ctrl)” value in test [1] is reported as 70 % Ctrl. Moreover, in test [2], the EC50 stood at 0.91 nM and the “Ratio GLP-1/Glucagon” value is on record as 2.60. For the same molecule, in test [3], the EC50 came out at 1.06 nM.
